# Measured values reported in US20230165836A1, “ALPHA-2 ADRENERGIC RECEPTOR AGONISTS FOR THE TREATMENT OF CANCER” (UNIVERSITÉ CATHOLIQUE DE LOUVAIN, priority 2020, published 2023).
# “Also recorded” adds a separate entry of the source.
# Key:
# CT26 colon cancer = CT26 colon cancer tumor growth (FIGS. 15-16); format: in vivo, C57BL/6J mice
# Description: Tumor infiltration of CD8+cells evaluated at the day of sacrifice by FACS (FIG. 15B). Tumor growth of CT26 colon cancer in NSG mice treated with PBS (Control), clonidine, clonidine mixed with yohimbine, or yohimbine alone (FIG. 15C). FIGS. 16A-C is a set of curves and histograms showing the tumor growth of CT26 colon cancer in C57BL/6J mice treated with PBS (Control, circles), guanabenz (diamonds), guanabenz mixed with yohimbine (light grey inverted triangles), or yohimbine alone (dark grey inverted triangles) (FIG. 16A); the tumor infiltration of CD8+ cells evaluated at the day of sacrifice by FACS (FIG. 16B); and the tumor growth of CT26 colon cancer in NSG mice treated with PBS (Control), guanabenz, guanabenz mixed with yohimbine, or yohimbine alone (FIG. 16C). […] For evaluation of yohimbine on the effect of clonidine and guanabenz, the mice were randomized into different groups when tumors size arrived around 100 mm^3 and received daily injections of guanabenz (5 mg/kg, i.p.), yohimbine (10 mg/kg), a mix of guanabenz (5 mg/kg, i.p.) and yohimbine (10 mg/kg, i.p.), clonidine (5 mg/kg, i.p.), a mix of clonidine (5 mg/kg, i.p.) and yohimbine (10 mg/kg, i.p.) or vehicle control.
# human LS411N cancer = test: LS411N xenograft with adoptive transfer of allogeneic human PBMC; format: in vivo; details: PBMC, clonidine mixed with yohimbine
# Experimental: (§1) Adoptive transfer of human PBMC was performed when tumor size reaches 100 mm^3.
# [1] = tested on: human LS411N ovarian cancer; test: as above; format: in vivo
# Experimental: as §1
# CT26 colon carcinomas = test: CT26 colon carcinoma model, daily i.p. treatment, tumor volume; format: in vivo, BALB/c mice; details: for effect of co-administered antagonist on the inhibition of tumor growth by clonidine / effect of co-administered antagonist on the inhibition of tumor growth by guanabenz: CT26; for effect of co-administered antagonist on the inhibition of tumor growth by clonidine: clonidine 5 mg/kg i.p. plus phentolamine 5 mg/kg, propranolol 5 mg/kg or yohimbine 10 mg/kg i.p. daily; for effect of co-administered antagonist on the inhibition of tumor growth by guanabenz: guanabenz 5 mg/kg i.p. plus phentolamine 5 mg/kg or yohimbine 10 mg/kg i.p. daily
# Experimental: Mice received a daily intra-peritoneal injection of guanabenz (5 mg/kg) or vehicle (PBS) from the day of randomization (and the day of ACT when applicable) until the day of sacrifice. For the co-administration of adrenergic receptor agonist and antagonist, BALB/c mice bearing CT26 colon carcinomas received daily injections of vehicle control, guanabenz (5 mg/kg, i.p.), or guanabenz (5 mg/kg, i.p.) plus yohimbine (10 mg/kg, i.p.), when the tumor size was around 50 mm^3, until the day of sacrifice.
# […] mice were injected subcutaneously with 2×10^6 CT26 colon tumor cells at an age of 6 to 8 weeks. […] For evaluation of yohimbine on the effect of clonidine and guanabenz, the mice were randomized into different groups when tumors size arrived around 100 mm^3 and received daily injections of guanabenz (5 mg/kg, i.p.), yohimbine (10 mg/kg), a mix of guanabenz (5 mg/kg, i.p.) and yohimbine (10 mg/kg, i.p.), clonidine (5 mg/kg, i.p.), a mix of clonidine (5 mg/kg, i.p.) and yohimbine (10 mg/kg, i.p.) or vehicle control. Tumor size was measured every 2 days and mice were sacrificed when the tumor in control group reached 1,000 mm^3.
# [2] = tested on: immune-resistant autochthonous melanoma tumors (TiRP); test: TiRP melanoma with adoptive cell transfer (ACT) of P1A-specific CD8+T cells; format: in vivo, TiRP mice
# Description: TiRP mice have been created by crossing Ink4a/Are^flox/flox mice with mice carrying a transgenic construct controlled by the tyrosinase promoter and driving the expression of H-Ras ^12V and Trapl a which encodes a MAGE-type tumor antigen P1A; the promoter is separated from the coding region by a stop cassette made of a floxed self-deleting CreER (Huijbers et al., 2006, Cancer Res 66, 3278-3286). Those mice were backcrossed to a B10.D2 background and bred to homozygosity. TCRP1A mice heterozygous for the H-2Ld/P1A35-43-specific TCR transgene were kept on the B10.D2;Rag1^−/− background (Shanker et al., 2004, J Immunol 172, 5069-5077). BALB/c mice were used in tumor transplantation experiments. TiRP-derived T429.11 transplanted melanoma model: T429.11 clone was derived from an induced Amela TiRP tumor referred to as T429. It was cloned from the T429 induced melanoma primary tumor line. Two million of T429.11 tumor cells were injected subcutaneously into recipient mice for tumor establishment (Zhu et al., 2017, Nat Commun. 10; 8(1):1404). Adra2a tm1Bkk mice (Strain Name: B6.129-Adra2a tm1Bkk /J, # 004367) were obtained from Jackson Laboratory (Bar Harbor, Me., USA).
# (§2) A fresh solution of 40H-Tamoxifen was prepared by dissolving 40H-Tamoxifen (Imaginechem®) in 100% ethanol and mineral oil (ratio 1:9) followed by 30 min sonication, and injected subcutaneously (2 mg/200 uL per mouse) in the neck area of gender-matched 7 weeks old TiRP mice. Tumor appearance was monitored daily and tumors were measured three times/week. Tumor volume (in mm^3) was calculated by the following formula: Volume=width^2×length/2.
# For the adoptive cell transfer (ACT), P1A-specific (TCRP1A) CD8+T cells were isolated from spleens and lymph nodes of TCRP1A mice as described hereinabove, and stimulated in vitro by co-culture with irradiated (10,000 rads) L1210.P1A.B7-1 cells (Gajewski et al., 1995, J Immunol 154, 5637-5648) at 1:2 ratio (0.5×10^5 CD8+T cells and 10^5 L1210.P1A.B7-1 cells per well in 48-well plates) in IMDM (GIBCO®) containing 10% fetal bovine serum supplemented with L-arginine (0.55 mM, Merck®), L-asparagine (0.24 mM, Merck®), glutamine (1.5 mM, Merck®), beta-mercaptoethanol (50 μM, Sigma Aldrich®), 50 U mL^−1 penicillin and […] mL^−1 streptomycin (Life Technologies®). Four days later, TCRP1A CD8+T cells were purified on a Lymphoprep gradient (StemCell®) and 10^7 living cells were injected intravenously in 200 μL PBS in TiRP-tumor bearing mice on the day of randomization.
# TiRP-tumor bearing mice received adoptive cell transfer (ACT) of 10^7 P1A-specific activated CD8+T cells and daily injections of vehicle control, clonidine (5 mg/kg, i.p.), or clonidine (5 mg/kg, i.p.) combined with phentolamine (5 mg/kg, i.p.), when the tumor size was around 500 mm^3, until the day of sacrifice. Tumor size was monitored every 2 days. Mice were sacrificed when the tumor in control group reached around 2,000 mm^3.
# TiRP-tumor bearing mice received adoptive cell transfer (ACT) of 10^7 of P1A-specific activated CD8+T cells. Daily injections of 5 mg/kg i.p. of romifidine or clonidine were thus administered from the day of the ACT, when the tumor size was around 500 mm^3, until the day of sacrifice. As shown on FIGS. 5A-B, following romifidine or clonidine administration, tumor infiltration of CD8+T cells was increased. […]
# TiRP melanoma = TiRP melanoma model, monotherapy; format: in vivo; details: TiRP+/+ mice; 5 mg/kg, i.p. daily from tumor size around 250 mm^3
# Experimental: FIGS. 14A-B is a set of curves showing the tumor growth (melanoma) in TiRP+/+ mice that have received daily injections of guanfacine (5 mg/kg, i.p. triangles; FIG. 14A), clonidine (5 mg/kg, i.p., circles; FIG. 14B), or control (PBS, i.p., squares), when the tumor size was around 250 mm^3 until sacrifice.
# TiRP mice have been created by crossing Ink4a/Are^flox/flox mice with mice carrying a transgenic construct controlled by the tyrosinase promoter and driving the expression of H-Ras ^12V and Trapl a which encodes a MAGE-type tumor antigen P1A; the promoter is separated from the coding region by a stop cassette made of a floxed self-deleting CreER (Huijbers et al., 2006, Cancer Res 66, 3278-3286). Those mice were backcrossed to a B10.D2 background and bred to homozygosity. TCRP1A mice heterozygous for the H-2Ld/P1A35-43-specific TCR transgene were kept on the B10.D2;Rag1^−/− background (Shanker et al., 2004, J Immunol 172, 5069-5077). […]
# as §2
# B16F1 melanoma [3] = test: B16F1 melanoma in immune deficient mice; format: in vivo; details: B16F1 in immune deficient NSG mice; 5 mg/kg, i.p.
# Experimental: (§3) FIGS. 10A-B is a set of curves showing the tumor growth of B16F1 melanoma in C57BL/6J (FIG. 10A) or immunodeficient NSG mice (FIG. 10B) treated with PBS (Control, curve 1) or clonidine (5 mg/kg, i.p., curve 2).
# (§4) FIGS. 11A-B is a set of curves showing the tumor growth of B16F1 melanoma in C57BL/6J (FIG. 11A) or NSG mice (FIG. 11B) treated with PBS (Control, curve 1) or guanfacine (5 mg/kg, i.p., curve 2).
# B16F1 melanoma [4] = test: B16F1 melanoma in immune competent mice; format: in vivo; details: B16F1 in immune competent C57BL/6 mice; 5 mg/kg, i.p.; monotherapy
# Experimental: as §3, §4
# [5] = tested on: JAK2V617F mutated bone marrow; test: Myelofibrosis by JAK2V617F bone marrow transplantation, platelet counts; format: in vivo, mice; details: 5 mg/kg daily for three weeks
# Experimental: Murine femurs and tibias from JAK2V617F mutant mice were first harvested and cleaned thoroughly. Marrow cells were flushed into PBS with 2% fetal bovine serum using a 25G needle and syringe. Resulting cell suspensions were then filtered through a 40 uM cell strainer. Recipient mice were irradiated with two doses of 500 rad 4 h apart. 1 million of donor cells were injected into wild-type recipients by standard intravenous injection using a 27G insulin syringe. One week after bone marrow transplantation, mice were treated with guanabenz or clonidine at a dose of 5 mg/kg daily for three weeks. After three weeks of treatment, mice were dissected and peripheral blood was drawn by cardiac puncture, the platelet concentration was measured by Cell Counter Analyzer MS9-5V.
# MC38 colon carcinomas [6] = test: MC38 colon carcinoma in wildtype mice; format: in vivo, C57BL/6 Wildtype mice; details: 5 mg/kg, i.p. daily from tumor size around 50 mm^3
# Experimental: (§5) C57BL/6 Wildtype or C57BL/6 Adra2a KO mice bearing MC38 colon carcinomas received daily injections of vehicle control (PBS), clonidine (5 mg/kg, i.p.) or guanabenz (5 mg/kg, i.p.), when the tumor size was around 50 mm^3, until the day of sacrifice.
# JAK2V617F allele burden = test: Myelofibrosis by JAK2V617F bone marrow transplantation, allele burden; format: in vivo, C57BL/6 mice; details: 5 mg/kg i.p. daily; Day 7 versus Day 0
# Experimental: Bone marrow from primary CD45.2 JAK2V617F mice was mixed 1:1 with CD45.1 C57BL/6 marrow and transplanted into lethally irradiated CD45.2 C57BL/6 recipients. 1 month after bone marrow transplantation, mice were randomized into three groups and received daily i.p injection of 5 mg/kg of clonidine, guanabenz or PBS. Blood was taken on Day 0 (Just before the treatment) and on Day 7 (7 days after the treatment). The allele burden was assessed as a fraction of CD45.2 cells along total CD45 cells in the blood of mice.
# Decreased JAK2V617F allele burden is a golden standard method to evaluate the disease progression of MF.
# prostate cancer = test: Xenograft model of prostate cancer in NSG mice treated with PBMC; format: in vivo
# MC38 colon carcinomas [7] = test: MC38 colon carcinoma in Adra2a KO mice; format: in vivo, C57BL/6 Adra2a KO mice; details: 5 mg/kg, i.p. daily from tumor size around 50 mm^3
# Experimental: as §5
compound,measurement,setting,value
COC(=O)[C@@H]1[C@H]2C[C@H]3c4[nH]c5ccccc5c4CCN3C[C@@H]2CC[C@@H]1O [yohimbine],effect of yohimbine on the inhibition of tumor growth by clonidine,"CT26 colon cancer; CT26, clonidine mixed with yohimbine",strongly attenuated
same,effect of yohimbine on the inhibition of tumor growth by guanabenz,"CT26 colon cancer; CT26, guanabenz mixed with yohimbine",strongly attenuated
same,effect of yohimbine on the tumor inhibition by clonidine,human LS411N cancer,strongly attenuated
same,effect of yohimbine on the tumor inhibition by guanabenz,"[1]; PBMC, guanabenz mixed with yohimbine",strongly attenuated
same,effect of co-administered antagonist on the inhibition of tumor growth by clonidine,CT26 colon carcinomas,strongly attenuated; also recorded: reduced the inhibition of tumor growth
same,effect of co-administered antagonist on the inhibition of tumor growth by guanabenz,CT26 colon carcinomas,strongly attenuated; also recorded: reduced the inhibition of tumor growth
Fc1cccc(Br)c1NC1=NCCN1 [romifidine],tumor infiltration of CD8+T cells (%CD8+T cells among total CD45+T cells),"[2]; TiRP mice with ACT, 5 mg/kg i.p. daily from day of ACT, tumor size around 500 mm^3, 5 mg/kg",increase of tumor infiltration of CD8+T cells; also recorded: increased
Cc1ccc(N(CC2=NCCN2)c2cccc(O)c2)cc1 [Phentolamine],effect of phentolamine on the inhibition of TiRP tumor growth by clonidine,"[2]; ACT, clonidine 5 mg/kg i.p. plus phentolamine 5 mg/kg i.p. daily",attenuated the inhibitory effect of clonidine on TiRP tumor growth
same,effect of co-administered antagonist on the inhibition of tumor growth by clonidine,CT26 colon carcinomas,attenuated the inhibitory effect
same,effect of co-administered antagonist on the inhibition of tumor growth by guanabenz,CT26 colon carcinomas,attenuated the inhibitory effect
N=C(N)NC(=O)Cc1c(Cl)cccc1Cl [guanfacine],"tumor growth, combined with ACT","[2]; TiRP mice, ACT of 10^7 P1A-specific CD8+T cells, 5 mg/kg i.p. daily",inhibited the tumor growth
same,"tumor volume, monotherapy",TiRP melanoma,efficient in decreasing the tumor volume
same,tumor growth,B16F1 melanoma [3],No tumor inhibition was found
same,tumor growth,B16F1 melanoma [4],inhibited tumor growth
N=C(N)N/N=C/c1c(Cl)cccc1Cl [guanabenz],tumor growth,"CT26 colon cancer; CT26 colon cancer, FIGS. 15A, 16A",inhibited CT26 colon cancer tumor growth
same,tumor growth,[1]; human allogenic PBMC transferred at tumor size 100 mm^3,significant tumor inhibition
same,tumor growth (tumor volume),"CT26 colon carcinomas; CT26 in BALB/c mice, 5 mg/kg, i.p. daily from tumor size around 50 mm^3 until sacrifice",promotes a decrease of the tumor volume; also recorded: strongly inhibited CT26 tumor growth
same,platelet (PLT) counts,[5],significantly reduces the platelet (PLT) counts; also recorded: significantly reduced the high platelet counts
same,tumor growth,MC38 colon carcinomas [6],significant tumor inhibition
same,JAK2V617F allele burden (CD45.2 cells among total CD45 cells in blood),JAK2V617F allele burden,decrease of JAK2V617F allele burden in a number of mice
same,tumor growth,prostate cancer,strong tumor inhibition
same,tumor inhibition in Adra2a KO mice,MC38 colon carcinomas [7],almost completely attenuated
